Reference: patent US4007201A, “Novel pyrazole derivatives” (Kyorin Pharmaceutical Co. Ltd., priority 1975, dated 1977)

Experiments:
Assay type in all cases: in vivo, male Sprague Dawley rats
[1] = tested on: blood glucose level in alloxan diabetic rats; assay: Blood glucose level in alloxan diabetic rats loaded with much quantity of glucose
Method: (§1) These new compounds of the present invention are very useful as anti-diabetic agents, which is supported from the following pharmacological studies. The animals used for the pharmacological studies were male Sprague Dawley rats exept otherwise noted. 1. Hypoglycemic activity in non-diabetic rats (screening test)
Respective dose of the compound 4 (12.5 and 100 mg/kg) together with 2g/kg of glucose was orally administered to the alloxan diabetic rats.

[2] = tested on: blood glucose level in non-diabetic rats; assay: Synergistic effect on the insulin activity in non-diabetic rats; conditions: insulin 0.1 unit/kg s.c.; compound 4 25 mg/kg oral
Method: (§2) The animals used for the pharmacological studies were male Sprague Dawley rats exept otherwise noted. 1. Hypoglycemic activity in non-diabetic rats (screening test)
The blood glucose levels in the non-diabetic rats were respectively determined after a subcutaneous injection of insulin (0.1 unit/kg), after an oral administration of the compound 4 (25 mg/kg), and after simultaneous administrations of insulin and the compund 4.

[3] = tested on: liver glycogen level in rats loaded with glucose; assay: Liver glycogen level in rats loaded with glucose; conditions: oral in 40% glucose solution; 3 hours
Method: as §2
The rats were fasted for 16 - 18 hours, and then the compound 4 suspended in 40% glucose solution was orally administered (5 ml/kg of the suspension per body weight). Glycogen content in the liver was determined at 3 hours after the administration.

[4] = tested on: serum FFA level in non-diabetic rats; assay: Serum FFA level in non-diabetic rats, oral administration for 10 days
Method: as §1
(§3) The compound suspended in 1% CMC was orally administered once a day for 10 days to healthy rats weighing 140-160g. The rats were fasted for 16-18 hours prior to the last administration. Blood samples were taken at 90 minutes after the last administration, and the blood glucose and serum FFA levels were determined, respectively.

[5] = tested on: serum FFA level in fasted rats; assay: Time course of the serum FFA level in fasted rats (FIG. 1); conditions: 50 mg/kg oral; 0.5, 1, 2, 4 and 6 hours
Method: as §1
Further experiment was performed to clarify the effectiveness of the compound 4 on the serum FFA. Blood samples were taken at 0.5, 1, 2, 4 and 6 hours after an oral administration of 50 mg/kg to the fasted rats and the serum FFA levels were determined.

[6] = tested on: blood glucose level in non-diabetic rats; assay: Blood glucose level in non-diabetic rats, oral administration for 10 days
Method: as §1, §3

[7] = tested on: serum FFA level in alloxan diabetic rats; assay: Serum FFA level in alloxan diabetic rats, oral administration; conditions: compound 4 at 12.5 and 100 mg/kg, 1.5 and 5 hours
Method: as §1
(§4) Alloxan diabetic rats were obtained as follows. Namely, 2.5% fresh solution of alloxan (50mg/kg) was injected into the tail vein of male rats, and the rats were daily injected with insulin (1-4 units/day) from the 7th day after the administration of alloxan. The alloxan diabetic rats which were survived for more than 2 months with daily injection of insulin were used. The alloxan diabetic rats were fasted for 24 hours after the last treatment with insulin, and then the compound of the present invention was orally administered. The blood glucose levels were determined by the micro method of Momose before and 2, 4 and 6 hours after the administration.
The alloxan diabetic rats which were prepared and then preserved for 6 months with insulin as described in the previous experiment were used.

[8] = tested on: blood glucose level in fasted and glucose-loaded rats; assay: Duration of the action of the compound 4 (fasted, glucose-loaded rats); conditions: for Blood glucose before administration: 50 mg/kg oral group, before administration (baseline); for Blood glucose before administration / Blood glucose 2 hours / Blood glucose 4 hours / Blood glucose 6 hours: ± SE
Method: as §1
(§5) The rats were fasted for 16 - 18 hours prior to the experiment and those weighing 140 - 160g were used. Glucose solution (100 mg/0.5ml/150g body weight) was subcutaneously injected on the fasted rats. Each of the present compounds was suspended in 1% carboxymethyl cellulose (CMC), and about 0.5 ml of the suspension (corresponding to 100 mg/kg of the compound per body weight) was orally administered. Blood samples were taken from the tail vein of the rats at 2 and 5 hours after the administration, and the blood glucose level in each sample (0.1 ml) was determined by the micro method of Momose as described in SOGO-RINSHO 11, 120 (1962).
In order to reconfirm the effectiveness of the compounds of the present invention, more detailed examinations were performed on the most representative compound (compound of the Example 4 abbreviated hereinafter as the compound 4). The compound 4 suspended in 1% CMC was orally administered in a dose of 50 mg/kg to the fasted and glucose-loaded rats according to the preceding screening test, and the blood glucose levels at 2, 4 and 6 hours after the administration were determined by the method of Momose.

[9] = tested on: blood glucose level in fasted and glucose-loaded rats; assay: Relationships between doses and reducing activity of the compound 4; conditions: for Blood glucose: ± SE
Method: as §2, §5
The compound 4 and tolbutamide were orally administered to the fasted and glucose-loaded rats in various doses.

[10] = tested on: serum FFA level in non-diabetic rats; assay: Serum free fatty acids (FFA) level in non-diabetic rats at 90 minutes; conditions: 100 mg/kg oral
Method: as §1
The rats were fasted for 16-18 hours, and those weighing 130-160g were used. The compound 4 suspended in 1% CMC was orally administered to the fasted rats, and at 90 minutes after administration blood was drawn from the […] vena cava under anesthesia with sodium pentobarbital. The blood glucose level was determined by the method of Momose, and the serum FFA level was determined by the method of Itaya and Ui as described in J. Lipid Res., 6, 16 (1965), respectively.

[11] = tested on: blood glucose level in alloxan diabetic rats; assay: Hypoglycemic effect in alloxan diabetic rats; conditions: for Hypoglycemic effect in alloxan diabetic rats (in words): oral
Method: as §1, §4

Cc1cc(C)n(C(=O)CNS(=O)(=O)c2ccc(Cl)cc2)n1 [Example 4, 1-(N-p-chlorobenzenesulfonyl-glycyl)-3,5-dimethylpyrazole]
Effect on blood glucose level (in words) ([1]; 12.5 and 100 mg/kg oral with 2g/kg of glucose, 3 hours): significantly lowered at 3 hours after the administration (p<0.005)
Effect of combined use with insulin on blood glucose level [2]: more effective to reduce the blood glucose level than the individual administration
Effect on the liver glycogen level [3]: significantly reduced the liver glycogen level (p<0.001)
Serum FFA levels ([4]; 0.8 mg/kg oral once a day): 46.8 ± 5.1 μ Eq/dl
Effect on serum FFA level (in words) ([4]; 0.8 mg/kg/day oral): significantly lowered the serum FFA level even at a low dose (0.8mg/kg/day)
Serum FFA levels ([4]; 3.1 mg/kg oral once a day): 35.9 ± 2.9 μ Eq/dl
Serum FFA levels ([4]; 12.5 mg/kg oral once a day): 27.1 ± 1.5 μ Eq/dl
Serum FFA levels ([4]; 50.0 mg/kg oral once a day): 27.9 ± 1.5 μ Eq/dl
Effect on serum FFA level (in words, FIG. 1) [5]: markedly lowered the FFA level, and this effect could be observed at 6 hours after
Blood glucose levels ([6]; 0.8 mg/kg oral once a day): 81.6 ± 4.8 mg/dL
Blood glucose levels ([6]; 3.1 mg/kg oral once a day): 74.4 ± 6.6 mg/dL
Blood glucose levels ([6]; 12.5 mg/kg oral once a day): 74.8 ± 3.9 mg/dL
Blood glucose levels ([6]; 50.0 mg/kg oral once a day): 69.9 ± 6.7 mg/dL
Effect on serum FFA level in alloxan diabetic rats (in words) [7]: drastically decreased within 1.5 hours, and it was still more lowered even at 5 hours later
Blood glucose before administration [8]: 85.6 ± 3.2 mg%
Durability of hypoglycemic effect ([8]; 50 mg/kg oral, 2, 4 and 6 hours): more durable than that of tolbutamide
Blood glucose 2 hours ([8]; 50 mg/kg oral): 50.9 ± 1.2 mg%
Blood glucose 4 hours ([8]; 50 mg/kg oral): 63.1 ± 3.0 mg%
Blood glucose 6 hours ([8]; 50 mg/kg oral): 74.0 ± 1.6 mg%
Reduction % from control ([9]; 0.56 mg/kg oral): 14.9%
Blood glucose ([9]; 0.56 mg/kg oral): 77.5 ± 6.6 mg%
Reduction % from control ([9]; 1.14 mg/kg oral): 19.4%
Reduction of the blood glucose level (in words) ([9]; 1.14 mg/kg oral): significantly reduced the blood glucose level even at the dose of 1.14 mg/kg
Blood glucose ([9]; 1.14 mg/kg oral): 73.4 ± 6.4 mg%
Reduction % from control ([9]; 3.38 mg/kg oral): 20.6%
Blood glucose ([9]; 3.38 mg/kg oral): 72.3 ± 4.1 mg%
Reduction % from control ([9]; 6.75 mg/kg oral): 24.0%
Blood glucose ([9]; 6.75 mg/kg oral): 69.2 ± 7.8 mg%
Reduction % from control ([9]; 12.5 mg/kg oral): 34.8%
Blood glucose ([9]; 12.5 mg/kg oral): 59.4 ± 4.0 mg%
Reduction % from control ([9]; 25 mg/kg oral): 45.4%
Blood glucose ([9]; 25 mg/kg oral): 49.7 ± 2.8 mg%
Reduction % from control ([9]; 50 mg/kg oral): 40.5%
Blood glucose ([9]; 50 mg/kg oral): 54.2 ± 2.9 mg%
Effect on serum FFA level (in words) [10]: more effective than tolbutamide in lowering the serum FFA level
Serum FFA level [10]: 17.4 ± 5.8 μ Eq/dl
Blood glucose before administration ([11]; 100 mg/kg oral group, before administration (baseline), ± SE): 352.1 ± 31.6 mg%
Blood glucose 2 hours ([11]; 100 mg/kg oral, 2 hours, ± SE): 267.6 ± 34.3 mg%
Blood glucose 4 hours ([11]; 100 mg/kg oral, 4 hours, ± SE): 172.4 ± 35.1 mg%
Blood glucose 6 hours ([11]; 100 mg/kg oral, 6 hours, ± SE): 97.8 ± 13.4 mg%
Hypoglycemic effect in alloxan diabetic rats (in words) [11]: could be observed, and it lasted so longer than that of phenformin (phenethylbiguanide) as to be potent even at 6 hours after the administration

CCCCNC(=O)NS(=O)(=O)c1ccc(C)cc1 [Tolbutamide, reference compound]
Hypoglycemic effect (in words) ([1]; alloxan diabetic rats, dose not stated): no hypoglycemic effect
Effect of combined use with insulin on blood glucose level [2]: not more effective than the administration of tolbutamide alone
Effect on the liver glycogen level [3]: neither tolbutamide or pnenformin exerted such effect
Serum FFA levels ([4]; 50.0 mg/kg oral once a day): 45.1 ± 2.7 μ Eq/dl
Effect on serum FFA level (in words, FIG. 1) [5]: only a slight suppression
Blood glucose levels ([6]; 50.0 mg/kg oral once a day): 33.6 ± 6.3 mg/dL
Effect on serum FFA level in alloxan diabetic rats (in words) [7]: no suppressive effect on the serum FFA level
Blood glucose before administration [8]: 86.2 ± 2.1 mg%
Blood glucose 2 hours ([8]; 50 mg/kg oral): 44.7 ± 5.0 mg%
Blood glucose 4 hours ([8]; 50 mg/kg oral): 60.4 ± 5.4 mg%
Blood glucose 6 hours ([8]; 50 mg/kg oral): 80.7 ± 5.4 mg%
Reduction % from control ([9]; 6.75 mg/kg oral): 3.8%
Blood glucose ([9]; 6.75 mg/kg oral): 87.6 ± 6.5 mg%
Reduction % from control ([9]; 12.5 mg/kg oral): -1.4%
Blood glucose ([9]; 12.5 mg/kg oral): 92.4 ± 3.5 mg%
Reduction % from control ([9]; 25 mg/kg oral): 19.3%
Blood glucose ([9]; 25 mg/kg oral): 73.5 ± 5.0 mg%
Reduction % from control ([9]; 50 mg/kg oral): 48.0%
Blood glucose ([9]; 50 mg/kg oral): 47.4 ± 3.4 mg%
Potency at low doses (in words) ([9]; low doses, oral): not potent at low doses
Serum FFA level [10]: 30.8 ± 15.6 μ Eq/dl
Hypoglycemic effect in alloxan diabetic rats (in words) [11]: could not exert its hypoglycemic effect in the alloxan diabetic rats
